Laboratory results reported in patent publication US20260174788A1 (priority 2023, published 2026).

Columns and labels:
[1] = Pharmacokinetics of gemcitabine and dFdU in urine and plasma after TAR-200; details: for Mean cumulative excreted amount in urine as percentage of the administered dose: 0-168 hours after TAR-200; for Tmax: human, urine, other: intravesical, 225 mg gemcitabine
[2] = system: HR NMIBC (CIS with or without papillary disease) unresponsive to prior intravesical BCG therapy; design: species or system human; details: in vivo

Compound | Mean cumulative excreted amount in urine as percentage of the administered dose [1] | Tmax [1] [h] | 12-month CR rate, all TAR-200 treated patients [2] [%] | Responders who achieved CR at the 12 weeks disease assessment [2] | effectiveness versus existing standard of care [2] | Mean gemcitabine concentration in urine versus tumoricidal concentration ([1]; after TAR-200 (225 mg gemcitabine)) [µg/mL]
O=c1ccn([C@@H]2O[C@H](CO)[C@@H](O)C2(F)F)c(=O)[nH]1 [dFdU, 2′,2′ difluorodeoxyuridine] | 11.1-23.3% | 72 to 144 |  |  |  | 
Nc1ccn([C@@H]2O[C@H](CO)[C@@H](O)C2(F)F)c(=O)n1 [gemcitabine] | 36.2-53.8% | 48 to 96 | 64 | 47 out of 48 | nearly two times as effective | > 3
